In patent publication US20050032873A1, “3-Amino chroman and 2-amino tetralin derivatives” (Wyeth, priority 2003, published 2005):
Read-outs that look alike come from different tables or passages of the source.

Experiments:
serotonin transporter = target: T1, serotonin transporter (Rattus norvegicus, UniProt P31652); assay: 5-HT transporter affinity: displacement of 3H-paroxetine from male rat cortical membranes; type: binding; settings: for Ki: displacement of 3H-paroxetine, male rat cortical membranes, read-out: 5-HT Transporter Affinity Ki
T1 construct: displace ^3H-paroxetine from male rat cortical membranes; from tissue; host or cells: male rat cortical membranes
T1 sequence (P31652 whole entry): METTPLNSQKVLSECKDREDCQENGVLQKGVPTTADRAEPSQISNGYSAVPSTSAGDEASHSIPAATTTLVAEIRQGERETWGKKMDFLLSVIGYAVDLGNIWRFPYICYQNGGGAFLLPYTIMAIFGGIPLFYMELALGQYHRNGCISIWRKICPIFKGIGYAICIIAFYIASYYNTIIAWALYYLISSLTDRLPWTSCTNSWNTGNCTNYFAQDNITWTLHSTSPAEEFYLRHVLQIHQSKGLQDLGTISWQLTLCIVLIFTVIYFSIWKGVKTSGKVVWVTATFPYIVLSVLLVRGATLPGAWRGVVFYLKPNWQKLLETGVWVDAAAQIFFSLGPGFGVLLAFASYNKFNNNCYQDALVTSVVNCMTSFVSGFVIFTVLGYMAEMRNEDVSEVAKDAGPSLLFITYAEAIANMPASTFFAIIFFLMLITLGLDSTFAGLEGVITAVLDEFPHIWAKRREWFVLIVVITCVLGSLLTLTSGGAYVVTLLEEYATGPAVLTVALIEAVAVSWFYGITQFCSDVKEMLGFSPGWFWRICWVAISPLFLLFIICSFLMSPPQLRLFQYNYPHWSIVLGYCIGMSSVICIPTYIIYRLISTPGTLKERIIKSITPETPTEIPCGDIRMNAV

[1] = target: T2, cloned human 5-HT1A receptors (Homo sapiens, UniProt P08908); assay: 35S-GTPγS binding assay, 5-HT1A function; type: biochemical; settings: for IC50: antagonist potency, reversal of 8-OH-DPAT, read-out: 5-HT1A Function GTPγS IC50; for EC50: agonist potency
T2 construct: expressed in transfected cells
T2 sequence (P08908 1-422): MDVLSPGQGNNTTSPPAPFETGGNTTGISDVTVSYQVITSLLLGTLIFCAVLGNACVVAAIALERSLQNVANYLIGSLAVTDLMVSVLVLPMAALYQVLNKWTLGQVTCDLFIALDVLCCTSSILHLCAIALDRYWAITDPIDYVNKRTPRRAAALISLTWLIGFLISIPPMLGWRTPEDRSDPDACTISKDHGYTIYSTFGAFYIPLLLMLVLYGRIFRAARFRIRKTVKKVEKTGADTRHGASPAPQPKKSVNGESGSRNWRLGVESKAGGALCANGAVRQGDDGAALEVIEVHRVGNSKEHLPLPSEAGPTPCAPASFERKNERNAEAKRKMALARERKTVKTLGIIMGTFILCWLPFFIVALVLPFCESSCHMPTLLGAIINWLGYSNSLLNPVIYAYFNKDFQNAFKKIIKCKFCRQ

5-HT1A receptor [2] = target: T3, 5-HT1A receptor (Homo sapiens, UniProt P08908); assay: cAMP accumulation assay, 5-HT1A function; type: cell-based; settings: for IC50: cells marked IC50 (antagonist), read-out: 5-HT1A Function cAMP IC50; for Emax / 5-HT1A Function cAMP (Emax): in brackets after EC50 or IC50; for Emax: read-out: 5-HT1A Function cAMP (Emax); for EC50: cells marked EC50 (agonist)
T3 sequence (P08908 1-422): T2 sequence (P08908 1-422)

5-HT1A receptor [3] = target: T3, 5-HT1A receptor; assay: 5-HT1A receptor affinity: displacement of [3H] 8-OH-DPAT; type: binding; set-up: expressed in transfected cells; settings: displacement of [3H] 8-OH-DPAT; CHO cells stably transfected with human 5-HT1A receptors; read-out: 5-HT1A Receptor Affinity Ki
[4] = maximum inhibitory effect, in brackets after IC50, read-out: 5-HT1A Function GTPγS (Imax)
[5] = maximum stimulatory effect, in brackets after EC50, read-out: 5-HT1A Function GTPγS (Emax)
[6] = maximum inhibitory effect, in brackets after IC50

Molecule | Ki (serotonin transporter) [nM] | IC50 [1] [nM] | Emax [1, 4] [%] | IC50 (5-HT1A receptor [2]) [nM] | Emax (5-HT1A receptor [2]) [%] | Ki (5-HT1A receptor [3]) [nM] | EC50 (5-HT1A receptor [2]) [nM] | 5-HT Transporter Affinity, % @ 1 μM (serotonin transporter; @ 1 μM) [% @ 1 μM] | EC50 [1] [nM] | Emax [1, 5] [%] | 5-HT1A Function GTPγS (Imax) [1, 6] [%] | 5-HT1A Function cAMP (Emax) (5-HT1A receptor [2]) [%] | 5-HT1A Function GTPγS (Emax) ([1]; maximum stimulatory effect, in brackets after EC50) [%]
COc1cccc2c1C[C@@H](N(CCCc1c[nH]c3ccc(F)cc13)C1CCC1)CO2 [Compound 35, (3R)-N-cyclobutyl-N-[3-(5-fluoro-1H-indol-3-yl)propyl]-5-methoxy-3,4-dihydro-2H-chromen-3-amine] | 41 | 489 | 80 | 23.4 | 0 | 2.14 |  |  |  |  |  |  | 
C[C@H](CCN(C1CCC1)[C@@H]1COc2c(F)ccc(C(N)=O)c2C1)c1c[nH]c2ccc(F)cc12 [Compound 152b, (3S)-3-{cyclobutyl[(3R)-3-(5-fluoro-1H-indol-3-yl)butyl]amino}-8-fluorochromane-5-carboxamide] | 182 | 5000 | 50 | 727 | 0 | 322 |  |  |  |  |  |  | 
N#Cc1ccc2[nH]cc(CCCN(CC3CC3)[C@@H]3COc4c(F)ccc(C(N)=O)c4C3)c2c1 [Compound 98a, (3S)-3-[[3-(5-cyano-1H-indol-3-yl)propyl](cyclopropylmethyl)amino]-8-fluorochromane-5-carboxamide] | 3.2 | 586 | 51 | 113 | 0 | 4.72 |  |  |  |  |  |  | 
COc1cccc2c1CC(N(CCCc1c[nH]c3ccc(F)cc13)C1CCC1)CO2 (stereo not drawn) [Compound 34, N-cyclobutyl-N-[3-(5-fluoro-1H-indol-3-yl)propyl]-5-methoxychroman-3-amine] | 13 | 2130 | 76 |  | 37 | 15.6 | 61.9 |  |  |  |  |  | 
O=C(NC1CC1)c1ccc(F)c2c1CC(N(CCCc1c[nH]c3ccc(F)cc13)C1CCC1)CO2 (stereo not drawn) [Compound 64, 3-{cyclobutyl[3-(5-fluoro-1H-indol-3-yl)propyl]amino}-N-cyclopropyl-8-fluorochromane-5-carboxamide] | 4.89 | 395 | 90 | 288 | 0 | 19.2 |  |  |  |  |  |  | 
CCCN(CCCc1c[nH]c2ccc(OC)cc12)C1COc2c(F)ccc(C(N)=O)c2C1 (stereo not drawn) [Compound 106, 8-fluoro-3-[[3-(5-methoxy-1H-indol-3-yl)propyl](propyl)amino]chromane-5-carboxamide] |  | 111 | 42 |  | 99 | 0.61 | 2.53 | 53 | 53.1 | 47 |  |  | 
COC(=O)c1ccc(F)c2c1C[C@H](NCCCCc1c[nH]c3ccc(F)cc13)CO2 [Compound 57a, Methyl (3S)-8-fluoro-3-{[4-(5-fluoro-1H-indol-3-yl)butyl]amino}chromane-5-carboxylate] | 4.21 |  |  |  | 81 | 113 | 337 |  | 1750 | 96 |  |  | 
NC(=O)c1ccc(F)c2c1C[C@@H](NCC1CCc3[nH]c4ccc(F)cc4c3C1)CO2 (single isomer, unassigned; (-)) [Compound 175a] | 20.9 | 429 |  | 1480 | 0 | 38 |  |  |  |  | 100 |  | 
NC(=O)c1ccc(F)c2c1CC(N(CCCCc1c[nH]c3ccc(F)cc13)CC1CC1)CO2 (stereo not drawn) [Compound 82, 3-{(cyclopropylmethyl)[4-(5-fluoro-1H-indol-3-yl)butyl]amino}-8-fluorochromane-5-carboxamide] | 3.51 | 162 | 100 | 51.1 | 0 | 1.64 |  |  |  |  |  |  | 
C[C@@H](CCN(C1CCC1)[C@H]1COc2c(F)ccc(C(N)=O)c2C1)c1c[nH]c2ccc(F)cc12 [Compound 153a, (3R)-3-{cyclobutyl[(3S)-3-(5-fluoro-1H-indol-3-yl)butyl]amino}-8-fluorochromane-5-carboxamide] | 61.5 | 3610 | 100 | 727 | 0 | 20.2 |  |  |  |  |  |  | 
CCCN(CCCc1c[nH]c2ccc(F)cc12)C1CCc2c(F)ccc(OC)c2C1 (single isomer, unassigned; (+)) [Compound 51a, (+)-5-fluoro-N-[3-(5-fluoro-1H-indol-3-yl)propyl]-8-methoxy-N-propyl-1,2,3,4-tetrahydro-2-naphthalenamine] | 1.15 |  |  |  |  | 1.71 | 16.5 |  | 13 | 69 |  | 100 | 
[3-(5-fluoro-1H-indol-3-yl)-propyl]-((3S)-5-methoxychroman-3-yl)propylamine [Compound 25] | 16.5 |  |  |  |  | 24.3 | 1.06 |  | 155 |  |  | 93.5 | 88
COc1cccc2c(CCN(CC3CC3)C3COc4c(F)ccc(C(N)=O)c4C3)coc12 (stereo not drawn) [Compound 160, 3-{(cyclopropylmethyl)[2-(7-methoxy-1-benzofuran-3-yl)ethyl]amino}-8-fluorochromane-5-carboxamide] | 127 |  |  | 948 | 0 | 33.8 |  |  | 1020 | 51 |  |  | 
CCCN(CCCc1c[nH]c2ccc(F)cc12)C1CCc2c(F)ccc(OC)c2C1 (stereo not drawn) [Compound 51, N-[3-(5-fluoro-1H-indol-3-yl)propyl]-N-(5-fluoro-8-methoxy-1,2,3,4-tetrahydronaphthalen-2-yl)-N-propylamine] | 2.42 |  |  |  | 83 | 11.4 | 13 |  | 15.3 | 95 |  |  | 
COC(=O)c1ccc(F)c2c1CC(N(CCCc1c[nH]c3ccc(F)cc13)C1CCC1)CO2 (stereo not drawn) [Compound 55, Methyl 3-{cyclobutyl[3-(5-fluoro-1H-indol-3-yl)propyl]amino}-8-fluorochromane-5-carboxylate] | 161 |  |  |  |  | 73.8 |  |  |  |  | 62 | 0 | 
CNC(=O)c1ccc(F)c2c1CC(N(CCCc1c[nH]c3ccc(F)cc13)CC1CC1)CO2 (stereo not drawn) [Compound 91, 3-{(cyclopropylmethyl)[3-(5-fluoro-1H-indol-3-yl)propyl]amino}-8-fluoro-N-methylchromane-5-carboxamide] | 3.33 | 191 | 77 | 88.3 | 0 | 2.28 |  |  |  |  |  |  | 
NC(=O)c1ccc(F)c2c1OCC(N(CCCCc1c[nH]c3ccc(F)cc13)CC1CC1)C2 (stereo not drawn) [Compound 125, 3-{(cyclopropylmethyl)[4-(5-fluoro-1H-indol-3-yl)butyl]amino}-5-fluorochromane-8-carboxamide] | 6.8 |  |  |  | 64 | 86.5 | 367 |  | 2800 | 63 |  |  | 
CCN(CC1CCc2[nH]c3ccc(F)cc3c2C1)[C@H]1COc2c(F)ccc(C(N)=O)c2C1 (single isomer, unassigned; (-)) [Compound 176a] | 619 | 4260 | 92 | 878 | 0 | 392 |  |  |  |  |  |  | 
CCCN(CCCc1c[nH]c2ccc(F)cc12)C1COc2c(F)ccc(C(N)=O)c2C1 (single isomer, unassigned; (-)) [Compound 2a, (−)-8-fluoro-3-[[3-(5-fluoro-1H-indol-3-yl)propyl](propyl)amino]-3,4-dihydro-2H-chromene-5-carboxamide] | 8.5 | 405 | 77.4 |  | 77.5 | 1.48 | 18.5 |  |  |  |  |  | 
COc1cccc2c(CCCN(CC3CC3)C3COc4c(F)ccc(C(N)=O)c4C3)c[nH]c12 (stereo not drawn) [Compound 103, 3-{(cyclopropylmethyl)[3-(7-methoxy-1H-indol-3-yl)propyl]amino}-8-fluorochromane-5-carboxamide] | 976 | 1000 | 95 | 172 | 0 | 3.54 |  |  |  |  |  |  | 
CNC(=O)c1ccc(F)c2c1CC(N(CCc1c[nH]c3ccc(F)cc13)C1CCC1)CO2 (stereo not drawn) [Compound 87, 3-{cyclobutyl[2-(5-fluoro-1H-indol-3-yl)ethyl]amino}-8-fluoro-N-methylchromane-5-carboxamide] | 26.5 | 513 | 100 | 172 | 0 | 7.01 |  |  |  |  |  |  | 
COc1cccc2c1CC(N(CCCc1c[nH]c3ccccc13)CC1CC1)CO2 (stereo not drawn) [Compound 43, N-(cyclopropylmethyl)-N-[3-(1H-indol-3-yl)propyl]-N-(5-methoxy-3,4-dihydro-2H-chromen-3-yl)amine] | 40.9 |  |  |  | 91.5 | 1.02 | 10.8 |  | 51.3 | 100 |  |  | 
